# Measurements taken from patent publication US20220022457A1, “Microbicide Ammonium-Imidazolium Oligomers and Their Anti-Fungal Compositions” (AGENCY FOR SCIENCE, TECHNOLOGY AND RESEARCH, priority 2018, published 2022).
# Legend:
# C. albicans [1] = assay: Checkerboard assay of oligomers with triazoles (FIC); type: cell-based; conditions: Candida albicans; for FIC with Fluconazole: calculated from lowest concentration inhibiting at least 50% growth; for Alone MIC50 component A: oligomer alone
# Procedure: […]. […] A row and a column in which a serial dilution of each agent was present alone were also prepared for MIC test. Then each solution in the well plate was inoculated with 100 μL of logarithmically grown 10^6 cells/ml C. albicans cells in the 96-well plate. The plate also contained a column with C. albicans only as control (100% cell growth). The cells were incubated at room temperature for 24 h with constant shaking, after which cell growth (i.e. the O.D. at 600 nm) was monitored with a microplate reader (TECAN) Synergy between fluconazole and oligomers was determined by calculating the fractional inhibitory concentration index ([…] was calculated as follows: FIC=(MIColigomer A in combination/MIColigomer A alone)+(MICazole B in combination/MICazole B alone). […] The interaction of selected oligomers with other triazoles such as itraconazole and voriconazole was also investigated using the checkerboard dilution method. For comparison, the interaction of the selected oligomer with a non-triazole antifungal agent […] was also investigated.
# [2] = tested on: Candida albicans (ATCC 10231, fungus); assay: Minimum inhibitory concentration, microdilution assay; type: cell-based; conditions: for MIC50 C.A. (value in brackets): Candida albicans, concentration inhibiting 50% fungal growth
# Procedure: Staphylococcus aureus (ATCC 6538, Gram-positive), Escherichia coli (ATCC 8739, Gram-negative), Pseudomonas aeruginosa (ATCC 9027, Gram-negative), and Candida albicans (ATCC 10231, fungus) were used as representative microorganisms to challenge the antimicrobial functions of the oligomers. All bacteria and fungus were frozen at -80° C., and were grown overnight at 37° C. in Mueller Hinton Broth (MHB, BD Singapore) prior to experiments. Fungus was grown overnight at 22° C. in Yeast Mold Broth (YMB, BD Singapore). […] […] […] Medium solution containing microbial cells alone were used as control (100% microbial growth). The assay was performed in four replicates and the experiments were repeated at least two times.
# Candida albicans = assay: Killing efficacy of selected oligomers at 62 μg/ml (FIG. 1); type: cell-based; conditions: for Fungistatic or fungicidal: survivors at 24 h compared with 0 h
# [3] = tested on: mouse red blood cells (RBCs); assay: Hemolysis study; type: cell-based; conditions: oligomer concentration giving 10% hemolysis, 1 h, 37° C.
# Procedure: After 1 h incubation at 37° C., the mixture was centrifuged at 2000 rpm for 5 min. Aliquots (100 μl) of the supernatant were transferred to a 96-well plate. Hemolytic activity was determined as a function of hemoglobin release by measuring absorbance of the supernatant at 576 nm using a microplate reader. A control solution that contained only PBS was used as a reference for 0% hemolysis. Absorbance of red blood cells lysed with 0.5% Triton-X was taken as 100% hemolysis. The oligomer concentration which results in 10% hemolysis is indicated as HC10 in Table 1. The data were expressed as mean and S.D. of four replicates. % Hemolysis=[OD576 nm (polymer)−OD576 nm (PBS)]/[OD576 nm (Triton-X)−OD576 nm (PBS)]×100%
# [4] = Critical micelle concentration; type: physicochemical
# [5] = tested on: Escherichia coli (ATCC 8739, Gram-negative); assay: Minimum inhibitory concentration, microdilution assay; type: cell-based; conditions: 24 h, lowest concentration with no visible growth
# Procedure: (§1) Staphylococcus aureus (ATCC 6538, Gram-positive), Escherichia coli (ATCC 8739, Gram-negative), Pseudomonas aeruginosa (ATCC 9027, Gram-negative), and Candida albicans (ATCC 10231, fungus) were used as representative microorganisms to challenge the antimicrobial functions of the oligomers. All bacteria and fungus were frozen at -80° C., and were grown overnight at 37° C. in Mueller Hinton Broth (MHB, BD Singapore) prior to experiments. Fungus was grown overnight at 22° C. in Yeast Mold Broth (YMB, BD Singapore). […] The plates were incubated at 37° C. for 24 h with constant shaking speed at 300 rpm. […] Medium solution containing microbial cells alone were used as control (100% microbial growth). The assay was performed in four replicates and the experiments were repeated at least two times.
# [6] = tested on: Pseudomonas aeruginosa (ATCC 9027, Gram-negative); assay: as above; type: cell-based; conditions: 24 h, lowest concentration with no visible growth
# Procedure: as §1
# [7] = tested on: Staphylococcus aureus (ATCC 6538, Gram-positive); assay: as above; type: cell-based; conditions: 24 h, lowest concentration with no visible growth
# Procedure: as §1
# C. albicans [8] = type: cell-based, Candida albicans
# Staphylococcus aureus = assay: Percentage growth after 24 hours with norfloxacin, IDPBX8 and 1:1 mixture (FIG. 2a); type: cell-based; conditions: IDPBX8 combined with norfloxacin, 1:1 weight ratio
# C. albicans [9] = assay: Growth of C. albicans with IDPBX8, fluconazole or combination (OD600, colony counting; FIG. 2b, 2c)
# [10] = Candida albicans ~10^6 CFU/ml, YMB, room temperature, no visible growth
# [11] = oligomer in combination with Fluconazole
# [12] = oligomer in combination with Itraconazole
# [13] = oligomer in combination with Voriconazole
# [14] = oligomer with Fluconazole (Table 2)
Compound,"MIC C.A. [2, 10] [µg/mL]",MIC50 C.A. (value in brackets) [2],CMC [4] [µg/mL],MIC E.C. [5] [µg/mL],MIC P.A. [6] [µg/mL],MIC S.A. [7] [µg/mL],Alone MIC50 component A (C. albicans [1]) [µg/mL],Combined MIC50 component A (C. albicans [1]; [11]) [µg/mL],FIC with Fluconazole (C. albicans [1]),Fungistatic or fungicidal (Candida albicans; 62 μg/ml),HC10 [3] [µg/mL],Interaction when applied together with voriconazole (C. albicans [1]),Combined MIC50 component A (C. albicans [1]; [12]) [µg/mL],Combined MIC50 component A (C. albicans [1]; [13]) [µg/mL],FIC (C. albicans [1]; [14]),FIC (C. albicans [1]; oligomer with Itraconazole),FIC (C. albicans [1]; oligomer with Voriconazole),also measured
CCCCCCCC[N+]12CC[N+](C/C=C/C[N+]34CC[N+](CCCCCCCC)(CC3)CC4)(CC1)CC2.[Br-].[Br-].[Br-].[Br-] [DDB8],125,(16) μg/ml,1552,8,125,4,,,0.25,fungistatic,>2000,,,,,,,
"OC(Cn1cncn1)(Cn1cncn1)c1ccc(F)cc1F [Fluconazole, fluconazole, reference compound]",,,,,,,,,,fungistatic rather than fungicidal,,,,,,,,"MIC50 (C. albicans [1]; triazole alone, read-out: Alone MIC50 component B): 4 µg/mL; Alone MIC50 component B (C. albicans [1]; triazole alone): 2 µg/mL; Combined MIC50 component B (C. albicans [1]; triazole in combination with IDPBX8): 0.5 µg/mL; Combined MIC50 component B (C. albicans [1]; triazole in combination with IDPPX8): 0.25 µg/mL; Combined MIC50 component B (C. albicans [1]; triazole in combination with IIDPPBX8): 2 µg/mL; MIC increase by the 31th passage (C. albicans [8]; grown at 1/4 MIC, 31th passage): 8 times of the original MIC; MIC ([2]; ATCC10231, Candida albicans ~10^6 CFU/ml, YMB, room temperature, no visible growth): 2 to 4 µg/mL; Number of surviving C. albicans after 24 h treatment compared with control (Candida albicans; 62 μg/ml, 24 h): significantly less than the untreated control"
CCCCCCCC[n+]1ccn(Cc2ccc(C[N+]34CC[N+](C/C=C/C[N+]56CC[N+](Cc7ccc(Cn8cc[n+](CCCCCCCC)c8)cc7)(CC5)CC6)(CC3)CC4)cc2)c1.[Br-].[Br-].[Br-].[Br-].[Br-].[Br-] [IDPBX8],8 to 31,(2-8) μg/ml,1456,31,62,16,8,1,0.38,,>2000,Synergy,1,2,0.38,0.62,0.31,"Efficacy of combination versus single agents (Staphylococcus aureus): did not show improved efficacy; Total concentration of the combination at which killing effect was observed (C. albicans [9]): 2 µg/mL; Activity of combination versus single agents (C. albicans [9]; IDPBX8 combined with fluconazole, 1:1 weight ratio, 24 h): higher activity than each compound/medicine used alone; Resistance developed by C. albicans (C. albicans [8]; 36 consecutive days of treatment): no significant resistance was developed; MICs over the entire 36 passages (C. albicans [8]; grown at 1/4 MIC): relatively stable; Killing (Candida albicans; 62 μg/ml, after 24 h treatment): 99%; Killing (Candida albicans; 62 μg/ml, after 48 h): 99.99%; Killing kinetics (Candida albicans; IDPBX8 compared with IIDPPBX8): kills faster"

# The next lines start with results.
"MIC C.A. [2, 10] [µg/mL]",MIC50 C.A. (value in brackets) [2],CMC [4] [µg/mL],MIC E.C. [5] [µg/mL],MIC P.A. [6] [µg/mL],MIC S.A. [7] [µg/mL],Alone MIC50 component A (C. albicans [1]) [µg/mL],Combined MIC50 component A (C. albicans [1]; [11]) [µg/mL],Compound,FIC with Fluconazole (C. albicans [1]),Fungistatic or fungicidal (Candida albicans; 62 μg/ml),HC10 [3] [µg/mL],Interaction when applied together with voriconazole (C. albicans [1]),Combined MIC50 component A (C. albicans [1]; [12]) [µg/mL],Combined MIC50 component A (C. albicans [1]; [13]) [µg/mL],FIC (C. albicans [1]; [14]),FIC (C. albicans [1]; oligomer with Itraconazole),FIC (C. albicans [1]; oligomer with Voriconazole),also measured
62,(8-31) μg/ml,1552,62,500,8,16,2,CCCCCCCC[n+]1ccn(Cc2ccc(C[N+]34CC[N+](Cc5ccc(C[N+]67CC[N+](Cc8ccc(Cn9cc[n+](CCCCCCCC)c9)cc8)(CC6)CC7)cc5)(CC3)CC4)cc2)c1.[Br-].[Br-].[Br-].[Br-].[Br-].[Br-] [IDPPX8],0.25,fungistatic,>2000,Synergy,4,4,0.19,0.50,0.30,
62,(8) μg/ml,291,62,250,4,,,CCCCCCCC[n+]1ccn(Cc2ccc(Cn3cc[n+](C/C=C/C[N+]45CC[N+](C/C=C/C[n+]6ccn(Cc7ccc(Cn8cc[n+](CCCCCCCC)c8)cc7)c6)(CC4)CC5)c3)cc2)c1.[Br-].[Br-].[Br-].[Br-].[Br-].[Br-] [IIDPBX8],0.31,,>2000,,,,,,,
31,(2-8) μg/ml,727,31,125,8,2,1,CCCCCCCC[n+]1ccn(Cc2ccc(Cn3cc[n+](Cc4ccc(C[N+]56CC[N+](C/C=C/C[N+]78CC[N+](Cc9ccc(C[n+]%10ccn(Cc%11ccc(Cn%12cc[n+](CCCCCCCC)c%12)cc%11)c%10)cc9)(CC7)CC8)(CC5)CC6)cc4)c3)cc2)c1.[Br-].[Br-].[Br-].[Br-].[Br-].[Br-].[Br-].[Br-] [IIDPPBX8],1.00,,>2000,,,,1.0,,,
